Laboratory results from US20110039779A1, “IGF-1R BINDING PROTEINS AND ANTAGONISTS” (priority 2007, published 2011).
Where “and” joins values, the source holds several entries; their conditions need not be identical. Equal entries are not always repeated. Where two headings read alike, the source gives them in different places. Where a SMILES comes first, the peptide text is derived from it.

Tests used:
MiaPaCa cells = experiment: cell assay (WST-1), antagonism of IGF-1, MiaPaCa; format: cell-based, human; conditions: 5×10^−8 M IGF-1; 72 h; FIG. 10C
Experimental: (§1) Cell Assays. MCF7 or MiaPaCa cells were plated in 96 well plates at a concentration of 3×10^3 cells/well in 75 μL of serum-free RPMI-1640 and incubated overnight at 37° C. Dilutions of the peptides were prepared in a separate working plate and 75 μL added to the cells. […] Plates were incubated for 48-72 hours at 37° C. Viability was measured by the addition of 10 μL WST-1/well (Roche) as per the manufacturer's instructions.

IRS-1 [1] = experiment: IRS-1 phosphorylation in MCF7 cells (immunoprecipitation, Western blot); format: cell-based, human; conditions: 0.5 nM IGF-1, 10 minutes, peptides 30 μM
Experimental: Preparation of whole-cell lysates, immunoprecipitation, and Western blot analysis. For qualitative IRS-1 phosphorylation analysis, MCF7 cells in monolayer cultures (about 80% of confluency) were used. […] After treatment, cells were rinsed twice with ice-cold PBS containing 0.2 mM PMSF and 1 mM Na3VO4 (all from SIGMA). Cells were scraped into the same buffer and pelleted by centrifugation at 200 g for 3 min. […] Cell lysates were cleared by centrifugation for 5 min at 14 000 g and the resulting supernatant was snap-frozen in EtOH-dry ice and stored at −80° C. The protein concentration was determined using the Dc Protein Assay Kit (Bio-Rad Laboratories).
Immunoprecipitations were performed with pre-cleared lysates for 4 hours at […] using 0.3-0.5 mg of total protein with 1 μg of polyclonal anti-IRS-1 antibody (Upstate Biotechnology), and 25 μL of Protein A/agarose slurry (SIGMA). Agarose beads with immobilized proteins were washed 3 times with IP wash buffer (50 mM Tris pH 7.5 (GibcoBRL), 150 mM NaCl, 1 mM Na3VO4, 0.2 mM PMSF). […]
Immunoprecipitates were subjected to SDS-PAGE on 4-15% Tris-HCl Ready Gels and transferred to Trans-Blot Transfer Medium nitrocellulose membranes (both from Bio-Rad Laboratories). […] Blots were exposed to an enhanced […] substrate (ECL Western Blotting Analysis System, Amersham Pharmacia Biotech). […]

[2] = molecular target: T1, His-tagged soluble recombinant human IGF-IR (srhIGF-1R-his) (Homo sapiens, UniProt P08069); experiment: ALPHAScreen competition binding assay, biotinylated hIGF-1
T1 construct: The extra-cellular domain of IGF-1R was obtained as a recombinant protein from R&D Systems; purchased R&D Systems, Inc., Minneapolis, Minn
T1 sequence (P08069 31-736 limits assumed): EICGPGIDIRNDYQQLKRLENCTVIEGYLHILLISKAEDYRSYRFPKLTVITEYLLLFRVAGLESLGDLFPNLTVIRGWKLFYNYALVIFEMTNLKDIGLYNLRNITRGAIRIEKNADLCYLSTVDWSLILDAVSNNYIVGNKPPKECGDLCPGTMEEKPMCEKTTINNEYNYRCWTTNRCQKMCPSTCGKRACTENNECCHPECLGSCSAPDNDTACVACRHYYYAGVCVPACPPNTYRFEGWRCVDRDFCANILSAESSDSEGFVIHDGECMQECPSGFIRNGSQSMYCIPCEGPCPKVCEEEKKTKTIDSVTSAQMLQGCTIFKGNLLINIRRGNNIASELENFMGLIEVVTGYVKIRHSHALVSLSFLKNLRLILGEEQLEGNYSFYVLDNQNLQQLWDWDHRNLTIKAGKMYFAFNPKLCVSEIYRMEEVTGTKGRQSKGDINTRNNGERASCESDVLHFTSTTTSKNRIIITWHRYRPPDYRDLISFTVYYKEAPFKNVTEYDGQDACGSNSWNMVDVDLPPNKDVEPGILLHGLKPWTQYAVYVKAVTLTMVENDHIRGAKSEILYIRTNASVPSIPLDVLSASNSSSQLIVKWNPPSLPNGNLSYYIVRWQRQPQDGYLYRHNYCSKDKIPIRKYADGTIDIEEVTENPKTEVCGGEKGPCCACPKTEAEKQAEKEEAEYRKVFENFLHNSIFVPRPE
T1 sequence (P08069 741-935 limits assumed): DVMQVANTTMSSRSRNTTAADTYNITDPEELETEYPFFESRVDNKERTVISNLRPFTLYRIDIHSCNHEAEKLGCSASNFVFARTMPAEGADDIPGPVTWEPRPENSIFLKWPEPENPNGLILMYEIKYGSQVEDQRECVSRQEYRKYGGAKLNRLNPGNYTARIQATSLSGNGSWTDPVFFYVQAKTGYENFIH
Experimental: Binding Assays. […] Detection of the receptor ligand interaction was measured in an amplified luminescent proximity homogeneous assay (ALPHAScreen; BioSignal-Packard, Montreal). The assay was performed in 384-well Nunc™ white polystyrene microplates (Nalge Nunc International, Naperville, Ill.) with a final volume of 40 μL. […] Each concentration of competitor was assayed in duplicate. Non-specific binding was determined in the presence of 3×10^−5 M hIGF-1. The second step of the assay was to add acceptor beads and the incubation continued for 0.5 hr. The final step was to add donor beads and the incubation continued for an additional 1 hr. […] Primary data were background corrected, normalized to buffer controls and then expressed as % Specific Binding. The data were fit to a four-parameter non-linear regression analysis (y=min+(max-min)/(1+10̂((log IC50-x)*Hillslope))), which was used to determine IC50 values. The Z′-factor for this assay is greater than 0.7 (Z′=1-(3σ++3σ−)/|μ+−μ−|) and the signal-to-background (SB) ratio was between 40 and 70.

MCF7 cells [3] = molecular target: T2, MCF7 cells (Homo sapiens, UniProt P08069); experiment: cell assay (WST-1), antagonism of IGF-1, MCF7; format: cell-based; conditions: 5×10^−8 M IGF-1; 72 h; FIG. 10B
T2 sequence (P08069 31-736): as the sequence (P08069 31-736 limits assumed) above
Experimental: as §1
The cells were treated as described in the materials and methods section. […] The data are presented as percent inhibition and to determine binding kinetic parameters data were fit to a four-parameter logistic equation.

SW480 cells = format: cell-based
Experimental: (§2) For cell growth/density studies, a mitochondrial activity assay was used, as exemplified by the following. Cells (SW480, MCF-7S8) were propagated in complete medium (DME: F12, 10% FCS (SW 480) or 5% FCS (MCF-7S8, P/S)), trypsinized, and seeded in 96 well plates as 10,000 cells/well in medium with 0.5% FCS. All wells in the periphery were omitted and only filled with medium. […] All treatments are made in triplicates. […] Treatment was continued for 48 hours (SW480 cells) or 72 hours (MCF-7S8 cells) before quantification of the cell density. Media was exchanged each day. Media and peptides were diluted in DMSO. When measuring cell density, the volume of each well was adjusted to […] Pre-diluted WST-1 (1 ml+1.5 ml DME:F12) was added as 25 μL to each well including background samples. Three wells with media only served as background controls. The cells were incubated for 90 min protected against light in an incubator.

[4] = molecular target: T3, IGF-1R on L6 (with mainly symmetric IGF-1R) (Rattus norvegicus, UniProt P24062); experiment: displacement of IGF-1 binding on L6 cells
T3 construct: L6 cells predominantly expressing IGF-1R and very limited insulin receptors; endogenous in cells; host or cells: L6 cells
T3 sequence (P24062 31-737 limits assumed): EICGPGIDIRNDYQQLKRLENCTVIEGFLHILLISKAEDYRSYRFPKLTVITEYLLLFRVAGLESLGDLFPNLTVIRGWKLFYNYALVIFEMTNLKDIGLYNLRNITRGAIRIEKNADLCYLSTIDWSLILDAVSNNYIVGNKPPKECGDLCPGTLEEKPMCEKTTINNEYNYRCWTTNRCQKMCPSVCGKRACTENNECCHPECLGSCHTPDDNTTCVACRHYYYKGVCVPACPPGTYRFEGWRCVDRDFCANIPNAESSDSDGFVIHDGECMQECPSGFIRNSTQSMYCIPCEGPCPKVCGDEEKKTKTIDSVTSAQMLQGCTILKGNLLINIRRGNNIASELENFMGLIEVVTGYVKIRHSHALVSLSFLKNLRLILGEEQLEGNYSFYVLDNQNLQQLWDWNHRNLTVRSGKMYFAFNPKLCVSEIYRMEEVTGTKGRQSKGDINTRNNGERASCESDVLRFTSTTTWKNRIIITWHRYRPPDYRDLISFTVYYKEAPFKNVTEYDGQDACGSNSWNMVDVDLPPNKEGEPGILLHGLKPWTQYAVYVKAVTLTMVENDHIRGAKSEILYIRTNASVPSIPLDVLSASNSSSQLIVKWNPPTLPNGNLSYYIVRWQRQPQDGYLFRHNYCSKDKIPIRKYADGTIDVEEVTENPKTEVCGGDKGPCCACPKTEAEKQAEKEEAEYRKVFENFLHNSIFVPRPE
T3 sequence (P24062 742-1370 limits assumed): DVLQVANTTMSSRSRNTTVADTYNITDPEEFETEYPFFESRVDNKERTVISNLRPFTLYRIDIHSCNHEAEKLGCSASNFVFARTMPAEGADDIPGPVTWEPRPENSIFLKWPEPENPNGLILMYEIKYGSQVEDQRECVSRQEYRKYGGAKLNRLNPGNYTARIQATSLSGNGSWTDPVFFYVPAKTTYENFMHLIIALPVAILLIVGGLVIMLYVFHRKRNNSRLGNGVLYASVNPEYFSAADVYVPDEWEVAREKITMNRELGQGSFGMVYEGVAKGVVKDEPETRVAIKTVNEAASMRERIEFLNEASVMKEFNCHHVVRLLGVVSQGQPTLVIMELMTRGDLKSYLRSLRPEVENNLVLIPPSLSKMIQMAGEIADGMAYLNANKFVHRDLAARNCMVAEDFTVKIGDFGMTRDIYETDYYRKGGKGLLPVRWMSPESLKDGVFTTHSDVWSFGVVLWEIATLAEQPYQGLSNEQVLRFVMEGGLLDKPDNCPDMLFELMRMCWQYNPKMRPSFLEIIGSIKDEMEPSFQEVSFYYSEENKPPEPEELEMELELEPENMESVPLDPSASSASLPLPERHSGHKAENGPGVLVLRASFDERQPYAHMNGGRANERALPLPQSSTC

insulin receptor/IGF-1R = experiment: tyrosine phosphorylation of insulin receptor/IGF-1R in L6-hIR cells (Western blot); format: cell-based
PKB/Akt = experiment: downstream signaling in L6 cells: PKB/Akt; format: cell-based; conditions: 3 nM IGF-1, read-out: PKB/Akt, IC50 for down regulation of the stimulation to the basal level
Experimental: (§3) The tyrosine phosphorylation of IRS signaling (the 180 kDa band on a tyrosine phosphor Western blot) as well as activation of effectors MAPK 44 and 42 and PKB were analyzed by using antibodies specific for their active forms using methods substantially similar to those described in Example 14 of the '246 PCT application.
(§4) The effect of select peptides on downstream signaling (MAPK44, MAPK42, PKB/Akt, IRS-1, and IGF-1R) was also measured by studying the signaling in L6 cells predominantly expressing IGF-1R and very limited insulin receptors. […] The antagonistic effect of the peptides can be seen to affect all the downstream signaling from the IGF-1R.

[5] = test system: SGBS adipocytes transfected with HIR-encoding DNA; experiment: 3H glucose incorporation (insulin agonist activity) in SGBS adipocytes; format: cell-based
Experimental: Insulin increases uptake of ^3H glucose into adipocytes and its conversion into lipid. Incorporation of ^3H into the lipid phase was determined by partitioning of lipid phase into a scintillant mixture, which excludes water-soluble ^3H products. […] The results are expressed as increase relative to full insulin response.

MAPK44 = experiment: downstream signaling in L6 cells: MAPK44; format: cell-based; conditions: 3 nM IGF-1, read-out: MAPK44, IC50 for down regulation of the stimulation to the basal level
Experimental: as §3, §4

MAPK42 = experiment: downstream signaling in L6 cells: MAPK42; format: cell-based; conditions: 3 nM IGF-1, read-out: MAPK42, IC50 for down regulation of the stimulation to the basal level
Experimental: as §3, §4

[6] = test system: IGF-1R, IRS-1, MAPK42/44 and PKB/Akt; experiment: IGF-1 induced phosphorylation (IGF-1R, IRS-1, MAPK42/44, PKB/Akt) in L6 and L6 hIR cells, summary in description; format: cell-based; conditions: read-out: phosphorylation of IGF-1R and MAPK42/44 in response to IGF-1 treatment, IC50
Experimental: The activation of HIR or HIGF-1R in adipocytes was measured by stimulating the cells and studying the level of tyrosine phosphorylation (Western blot) of the insulin receptor/IGF-1R. […] The IGF-1R will be present in symmetric homodimer complex as well as in the heterodimer with half insulin receptor.
as §3, §4

IRS-1 [7] = experiment: downstream signaling: IRS-1 tyrosine phosphorylation; format: cell-based
Experimental: as §3, §4

[8] = test system: L6 hIR (with mainly hybrid IGF-1R/IR); experiment: displacement of IGF-1 binding on L6 hIR cells
L6 hIR (with mainly hybrid IGF-1R/IR), sequence (P24062 31-737 limits assumed): as the sequence (P24062 31-737 limits assumed) above
L6 hIR (with mainly hybrid IGF-1R/IR), sequence (P24062 742-1370 limits assumed): as the sequence (P24062 742-1370 limits assumed) above

IGF-IR = experiment: downstream signaling in L6 cells: IGF-IR; format: cell-based; conditions: 3 nM IGF-1, read-out: IGF-IR, IC50 for down regulation of the stimulation to the basal level
Experimental: as §3, §4

MCF7 cells [9] = molecular target: T2, MCF7 cells; experiment: antagonism assay in starved MCF7 cells, luminescence viability, 72 hrs; format: cell-based; conditions: read-out: Cell; Table 11
Experimental: Additional binding and antagonism assays using candidate peptides were performed. […] Cell viability was determined by luminescence assay and IC50 was calculated using standard techniques.

MCF-7S8 cells = MCF-7S8 cells (Homo sapiens, UniProt P08069); experiment: cell growth/density, mitochondrial activity assay (WST-1), MCF-7S8; format: cell-based; conditions: one experiment only
MCF-7S8 cells, sequence (P08069 31-736): as the sequence (P08069 31-736 limits assumed) above
Experimental: as §2

[10] = read-out: IC50 in SW480 (M) in presence of IGF-1/alone: in presence of IGF-1, first value of the cell: concentration needed to blunt the effect of 10 nM IGF-1, cells in words only = effect as reported, 48 hours

SFYSCLESLVNGPAEKSRGQWDGCRK [Peptide F250]
antagonism of IGF-1 activity in MiaPaCa cells (MiaPaCa cells): antagonism of IGF-1 activity in MiaPaCa cells | IGF-1-induced phosphorylation of IRS-1 (IRS-1 [1]): inhibited | competition of IGF-1 binding ([2]; FIG. 10A): competes IGF-1 binding | antagonism of IGF-1 activity in MCF-7 cells (MCF7 cells [3]): antagonism of IGF-1 activity in MCF-7 cells | IC50 (SW480 cells; [10]): 2e-06 M and 1e-06 M

SFYSCLESLVQGPAEKSRGQWEGCRK [Peptide F293]
concentration displacing IGF-1 binding to IGF-1R on L6 [4]: 150 nM | inhibition of IGF-1 induced versus insulin induced phosphorylation (insulin receptor/IGF-1R): more effective on IGF-1 induced phosphorylation as compared to insulin induced phosphorylation | effect on insulin stimulated tyrosine phosphorylation (insulin receptor/IGF-1R; 2 μM peptide, 10 min): marginal effect | effect on tyrosine phosphorylation by IGF-1 (insulin receptor/IGF-1R; 2 μM peptide, 10 min): inhibited | IC50 (PKB/Akt): > 1000 nM | effect on glucose uptake induced by insulin or IGF-1 ([5]; SGBS adipocytes, FIGS. 1A and 1B): neither peptide F138 nor peptide F293 has any substantial effect on glucose uptake induced by insulin or IGF-1 | doses not affecting glucose uptake in response to insulin/IGF-1 ([5]; SGBS cells): < 5 µM | IC50 (MAPK44): 500 nM | IC50 (SW480 cells; read-out: IC50 in SW480 (M) in presence of IGF-1/alone: alone, second value of the cell: concentration needed to inhibit basal level in 0.5% FCS): 1e-07 M | inhibition of basal growth of SW480, doses (SW480 cells; without IGF-1): inhibition of basal growth was observed | IC50 (MAPK42): 1000 nM | IC50 [6]: 500 nM | effect on IGF-1 stimulated IRS-1 phosphorylation (IRS-1 [7]; FIG. 4, 10 min): clearly inhibits the IGF-1 stimulated IRS-1 phosphorylation | IC50 (IRS-1 [7]; L6 cells, 3 nM IGF-1, read-out: IRS-1, IC50 for down regulation of the stimulation to the basal level): > 1000 nM | concentration displacing IGF-1 binding in L6 hIR [8]: 150 nM | IC50 (IGF-IR): 500 nM

CC(C)C[C@H](NC(=O)[C@H](CS)NC(=O)[C@H](CO)NC(=O)[C@H](Cc1ccc(O)cc1)NC(=O)[C@H](Cc1ccccc1)NC(=O)[C@@H](N)[C@@H](C)O)C(=O)N[C@@H](C)C(=O)N[C@@H](CO)C(=O)N[C@@H](CC(C)C)C(=O)N[C@@H](CC(C)C)C(=O)N[C@H](C(=O)NCC(=O)N[C@H](C(=O)N1CCC[C@H]1C(=O)N[C@@H](CCC(N)=O)C(=O)N1CCC[C@H]1C(=O)N[C@@H](CC(N)=O)C(=O)N[C@@H](CCCNC(=N)N)C(=O)NCC(=O)N1CCC[C@H]1C(=O)N[C@@H](Cc1c[nH]c2ccccc12)C(=O)N[C@@H](CCC(=O)O)C(=O)N[C@@H](CCCNC(=N)N)C(=O)N[C@@H](CS)C(=O)N[C@@H](CCCNC(=N)N)C(=O)O)[C@@H](C)O)[C@@H](C)O [RP6] (H-TFYSCLASLLTGTPQPNRGPWERCR-OH)
IC50 [2]: 2700 nM | IC50 (MCF7 cells [9]): 9000 nM

ESYGDCRDRPCGDAPNFYDWFVQQASE [Peptide F270]
IC50 in SW480 (M) in presence of IGF-1/alone: in presence of IGF-1 (SW480 cells; first value of the cell: concentration needed to blunt the effect of 10 nM IGF-1, cells in words only = effect as reported, 48 hours): agonistic? | IC50 (SW480 cells; [10]): 2e-06 M | effect on MCF-7 (MCF-7S8 cells): agonistic effects
